Entries after “also recorded” stand apart in the source; their conditions may differ. Where a name gives a salt, the structure may show the parent alone. Read-outs that look alike come from different tables or passages of the source.
What was measured:
[1] = Single-dose oral pharmacokinetic study of one Phycox soft chew in dogs (serum, LC-MS/MS, non-compartmental analysis); type: in vivo, dog (female Beagle); settings: for serum concentration of polyphenol (aglycone or glucuronidated metabolite): single PO Phycox soft chew (36.1 μg ±hesperetin, 0.554 μg trans-resveratrol, 2.88 μg ±naringenin), serum 0-24 h; for half-life: po, 450 mg
Source text: The animal research protocol used in this study was reviewed and approved by the Institutional Animal Care and Use Committee at Washington State University (protocol #04224-011, approved 21 December 2014). Four commercially available purpose-bred intact female research Beagles from an Association for Assessment and Accreditation of Laboratory Animal Care (AALAC) certified source were used for the study. All dogs were 2 years of age at the onset of the study with a weight of 9.25 ± 0.81 kg (mean ± SD; range 8.4–10.2 kg). Animals were housed in AALAC approved facilities for animal research for 80 days acclimating to their environment prior to the initiation of the study. All dogs were fed a standard canine formulation (Proactive Health™ Adult Minichunks, IAMS, Mason, OH, USA) ration twice daily and housed in a temperature and humidity controlled room; 21 °C and 30%, respectively, while under 12 h light cycle conditions. The dogs underwent daily examinations and weekly body weight assessments. All animals were also given daily enrichment activities before, during, and after the study. At study termination all animals were transferred to an unrelated study. Dogs were fasted 12 h prior to the study but provided free access to water. Each subject was administered a single Phycox® soft chew and a series of blood samples (3 mL) were collected at 0, 1, 2, 4, 6, 8, 12 and 24 h post-dose via saphenous or cephalic vein depending on the temperament of the animals. Animals were fed after 2 h post-dose. Following centrifugation of the blood samples, serum was removed and stored at −80 °C until analyzed. One hundred microliters of serum from each PK sample was placed into a microcentrifuge tube. To all samples, except 0 h, 40 μL of 0.1 μg/mL internal standard stock solution (caffeine) was added along with 1.0 mL of cold acetonitrile (−20 °C) to precipitate proteins. The samples were vortexed and centrifuged at 20,160× g for 5 min. […] The residues were reconstituted with 50 μL of starting mobile phase (0.05% aqueous formic acid), vortexed and centrifuged at 20,160× g for 5 min. The supernatants were transferred to 30 kDa centrifugal filter tubes and centrifuged for 30 min at 9000× g. The filtrate was transferred to HPLC vials and 5 μL were injected into the LC-MS/MS system. The PK serum samples were separated into two sets of microcentrifuge tubes (total and aglycone) with 100 μL of serum in each. To the total samples, 20 μL β-glucuronidase (500 U/mL in 6.8 pH phosphate buffer) was added and incubated for 2 h at 37 °C [28]. To all samples except 0 h, 20 μL of 10 μg/mL internal standard stock solution (±liquiritigenin) was added along with 1.0 mL of cold acetonitrile (−20 °C) to precipitate proteins. […] The residues were reconstituted with 50 μL of mobile phase (50% aqueous methanol with 0.1% formic acid), vortexed and centrifuged at 20,160× g for 5 min. The supernatants were transferred to 30 kDa centrifugal filter tubes and centrifuged for 30 min at 9000× g. The filtrate was transferred to HPLC vials and 5 μL were injected into the LC-MS/MS system. PK samples were analyzed using Phoenix WinNonlin software (ver. 6.3; Certara, St. Louis, MO, USA) to derive the pharmacokinetic parameters for each individual dog and expressed as mean ± SEM. A non-compartmental analysis was used to calculate the PK parameters including area under the curve (AUC0–∞), the peak serum concentration (Cmax), time to reach peak serum concentration (Tmax), the apparent volume of distribution (Vd/F), the elimination half-life (t1/2), and the apparent clearance (CL/F). The elimination rate constant (KE), was estimated by log-linear regression of the serum concentrations. The AUC0–∞ was calculated using the long-linear trapezoidal rule for data from time of dosing to the last measured concentration plus the quotient of the last measured concentration divided by KE/2.303. The concentration time points of the animals were subjected to non-compartmental modeling.

[2] = Oral pharmacokinetics of glucosamine HCl in Beagle dogs (Adebowale et al.); type: in vivo; settings: longer than in this study (Phycox soft chew, 450 mg)
Description: Two previous studies have evaluated the oral pharmacokinetics of glucosamine HCl in Beagle dogs. Adebowale et al. administered 1500–2000 mg of glucosamine HCl to eight dogs and used non-compartmental modeling to derive PK parameters. […] The serum-concentration time curve reported in Adebowale et al. was similar in shape to the curve reported in this study but the half-lives were reported to be between 1.52–2.4 h, which is […] than the half-live reported in this study. […] The method employed by the study utilized a validated HPLC method with a limit of quantification of 1.25 μg/mL and involved pre-column derivatization. The amount of glucosamine administered in the present study was 3.3 to 4.4 less than those administered in the study by Adebowale et al. but the method employed in this study was 250 times more sensitive allowing for detection of much smaller concentrations of glucosamine. Various LC-MS-MS assays are validated in the literature across various fluids and species. […] The second report of glucosamine HCl PK in dogs administered 1000 mg of glucosamine HCl to four male dogs using two commercially available chewable tablet formulations. […] The method employed by the study used a modified HPLC method with a limit of quantification of 0.05 μg/mL (10 fold higher limit of quantitation than the method presented in this study) and involved pre-column derivatization. […]

[3] = parameters: method as in PMID 12214321; settings: cited from earlier work
[4] = parameters: method as in PMID 26205697; settings: cited from earlier work
[5] = parameters: method as in PMID 19647388; settings: Beagle dogs; cited from earlier work
[6] = female, Beagle, dog, glucosamine HCl 450 mg in one Phycox soft chew PO, fasted dogs, serum, n = 4, mean ± SEM
[7] = 1000 mg glucosamine HCl, four male dogs, two commercially available chewable tablet formulations

SMILES	serum concentration of polyphenol (aglycone or glucuronidated metabolite) ([1]; dogs, LOQ 5 ng/mL)	serum concentration of polyphenol (aglycone or glucuronidated metabolite) ([1]; dogs, LOQ 5 ng/mL, listed as ±Hesperetin)	half-life ([1]; female, Beagle, dog, serum, glucosamine HCl 450 mg in one Phycox soft chew PO, dogs, serum, read-out: apparent t1/2)	half-life ([1]; female, Beagle, dog, serum, glucosamine HCl 450 mg in one Phycox soft chew PO, fasted dogs, serum, n = 4, mean ± SEM, read-out: t1/2 (converted))	AUC(0-inf) [1, 6]	CL/F [1, 6]	Cmax [1, 6]	Tmax [1, 6]	Vd/F [1, 6]	time post-dose up to which glucosamine was detected in serum ([1]; single PO Phycox soft chew, dogs, samples collected for 24 h, LOQ 5 ng/mL)	half-life of Adebowale et al. relative to the half-life of this study [2]	half-lives ([3]; 1500–2000 mg glucosamine HCl oral, eight Beagle dogs)	detection of glucosamine ([3]; after 4 h post-dose, HPLC, LOQ 1.25 μg/mL)	Cmax [4, 7]	Tmax [4, 7]	detection of glucosamine ([4]; at 12 h post-dose, HPLC, LOQ 0.05 μg/mL)	absorption of glucosamine co-administered with chitosan compared to glucosamine alone [5]
COc1ccc(C2CC(=O)c3c(O)cc(O)cc3O2)cc1O (racemic) [±hesperetin]	no compounds were detected at quantifiable concentrations	not detected at quantifiable concentrations															
N[C@H]1C(O)O[C@H](CO)[C@@H](O)[C@@H]1O (stereo partly drawn) [glucosamine, glucosamine hydrochloride]			~35 min	35 ± 2.04 min	20400 ± 2340 ng·h/mL	42.7 mL/min/kg	9690 ± 1140 ng/mL	120 min	2.1 ± 0.254 L/kg	up to 8 h	3–5 times	1.52 to 2.4 h	not able to detect	1800 to 2600 ng/mL	252 to 300 min	not able to detect	increased
Oc1ccc(/C=C/c2cc(O)cc(O)c2)cc1 [trans-resveratrol]	not detected at quantifiable concentrations; also recorded: no compounds were detected at quantifiable concentrations																
